Entries after “also recorded” stand apart in the source; their conditions may differ.
What was measured:
[1] = test system: STAT3; experiment: STAT3 phosphorylation (Ser727, Tyr705) immunoblot in CNS stem cells; assay type: cell-based, mouse; details: for effect on STAT3-Ser727 phosphorylation following Notch activation: Notch ligand treated CNS stem cells
Source text: Ligands that activate JAK/STAT signaling promote astrocytic differentiation of CNS stem cells (Johe et al., Genes Dev 10:3129-40, 1996; Raj an et al., J Neurosci 18:3620-9, 1998; Bonni et al., Science 278:477-83, 1997; Song et al., Nat Neurosci 7:229-35, 2004; He et al., Nat Neurosci 8:616-625, 2005). When applying CNTF to CNS stem cells it was noted that low concentrations of CNTF stimulated survival but not expression of astrocyte specific genes. This is consistent with previous observations of Akt phosphorylation downstream of gp130 activation (Taga et al., Annu Rev Immunol 15:797-819, 1997). […] At high concentrations (20 ng/ml) the phosphorylation of Tyr705 can be blocked by an inhibitor of JAK while allowing a CNTF-induced increase in Ser727 phosphorylation (FIG. 2B) (Thompson et al., Bioorg Med Chem Lett 12:1219-23, 2002).
CNTF was used as a positive control; CNTF, induced the phosphorylation on both sites. With both CNTF and Notch activation, phosphorylation peaked at around 30 min. STAT3 phosphorylation on Ser727 following Notch activation was sensitive to the γ-secretase inhibitor DAPT (FIG. 2e). […] In contrast to CNTF, no Tyr705 phosphorylation was detected at any of the doses of Notch receptor ligands.
It was determined that insulin also maintains phosphorylation of serine 727 in STAT3 in foetal neural stem cell cultures.

[2] = test system: Notch1; experiment: Notch activation (Notch1IC / Notch ICD) immunocytochemical detection; assay type: cell-based, mouse; details: Notch ligands 1 hour
Source text: Antibodies were used that specifically bind: Notch1IC (Chemicon, 5352), GFP (Molecular Probes, A11122), Oct3/4 (Santa Cruz, sc-5279), SSEA1 and SSEA4 (Developmental Studies HybridomaBank), Tra-1-60 (Chemicon, MAB4360), Tra-1-81 (Chemicon, MAB4381), human nestin (Chemicon, MAB5326), Sox-1 (Gift from Dr. R Lovell-Badge), TH (Pel-Freez, P40101-0), Tuj1 (Covance, MMS-435P), rat nestin (McKay Lab), GFAP (Dako, z0334), CNPase (Chemicon, MAB326), BrdU (Accurate, H5903), DCX (Santa Cruz, sc-8066), Sox2 (R&D, MAB2018), Hu (Molecular Probes, A21271).
To assay for Notch activation, cultures were treated with the Notch ligands for 1 hour and Notch1 activation was detected by immunocytochemical staining of Notch1IC (FIG. 1b).
It was determined that insulin facilitates Notch cleavage using immunocytochemical detection.

[3] = test system: Hes3; experiment: Hes3 expression (RT-PCR, immunohistochemistry) in CNS stem cells; assay type: cell-based, mouse; details: for effect on Jagged-induced Hes3 mRNA induction: CNTF at high concentrations (>1 ng/ml)
Experimental: RT-PCR: For reverse-transcriptase PCR analysis, RNA was extracted from cell cultures or brain homogenates with Trizol (Invitrogen, 15596-026), and PCR reactions were performed with the ProSTAR First-Strand RT-PCR Kit (Stratagene, 200420). Primers were used for the following genes: Hes1, Hes2, Hes3, Hes5, Hes6, Hey2; Hes7
Notch signaling regulates transcription of the Hes/Hey gene family, a group of genes implicated in the control of differentiation (Iso et al., J Cell Physiol 194:237-55, 2003). RT-PCR was used to assess mRNA regulation of these genes one hour after Notch activation in CNS stem cells. […] The ability of high concentrations of CNTF to inhibit Hes3 induction following Notch activation was dependent on JAK activity (FIG. 4e). In contrast, in the absence of added Notch ligand, Hes3 mRNA levels were elevated by high CNTF and the JAK inhibitor (FIG. 4e).
Conversely, treatment with ciliary neurotrophic factor (CNTF), a cytokine that opposes the signal transduction pathway downstream of Notch activation opposed the ability of D114 to induce Hes3 transcription. Immunohistochemical experiments were performed that documented D114, CNTF regulate Hes3 expression. Thus, at the protein expression level, D114 maintains and CNTF inhibits Hes3 expression.

[4] = test system: E13.5 cortical embryonic mouse CNS stem cells; experiment: CNS stem cell plating efficiency / colony formation / survival; assay type: cell-based; details: 5 days, versus FGF2 control; CNTF low 0.01, 0.1 ng/ml or high 20 ng/ml with JAK inhibitor
Experimental: Cell culture: E13.5 cortical embryonic mouse and adult rat subventricular zone CNS stem cells were grown as previously described (Johe et al., Genes Dev 10:3129-40, 1996; Rajan et al., J Neurosci 18:3620-9, 1998). Cells were expanded in serum-free DMEM/F12 medium with N2 supplement with FGF2 (20 ng/ml) for 5 days and were re-plated at 1000-10,000 cells per cm^2. FGF2 was included throughout our experiments, unless otherwise stated.
To explore these paradoxical observations, CNS stem cell cultures from mid-gestation (embryonic day 13.5) mouse dorsal telencephalon were treated with soluble Notch ligands. […] Following initial passaging, the cells were plated at a density of 1000 cells/cm^2, cultured for 5 days in the presence of FGF2, and colony numbers, sizes, and BrdU incorporation (after a 4 hour BrdU pulse) were enumerated. Notch activation by Jagged-1 or Delta-4 (200 ng/ml) increased the number of colonies generated in vitro by over 3-fold (FIG. 1a). […] The effects of Notch activation were most dramatic when treatments were initiated at the start of the culture.
Insulin in the medium is also thought to promote cell survival. […] Seeding cells in the absence of insulin caused the plating efficiency measured at five days to drop to 29.9%±37.9 (FIG. 1e). Delta-4 was able to compensate for the lack of insulin in the medium, and restored plating efficiency (125%±19.4). Because Notch activation improved survival, activation of Akt, a ser/threonine kinase known to be involved in cell survival, was assayed. Notch activation rapidly (5 minutes) promoted the phosphorylation of Akt on Ser473 and […] in both the presence and absence of insulin (FIG. 1f).

[5] = test system: HSF6 hES cells; experiment: hES single cell plating efficiency, HSF-6; assay type: cell-based, human; details: one week treatment
Source text: The human ES cell lines HSF-6 (University of California, San Francisco; NIH # UC06, Passage 38-120) and H1 and H9 (WiCell Research Institute, NIH # WA01 and […]) were maintained on mouse embryonic fibroblasts (MEF) according to the suppliers' protocols. Immunocytochemistry and FACS analysis for the expression of Oct4 and SSEA4 and SKY karyotyping established that the starting cells are undifferentiated and have a normal set of chromosomes. For single cell survival experiments, hES colonies were harvested after treatment with 1.5 mg/ml collagenase type IV (Invitrogen), separated from the MEF feeder cells by repeated washing by gravity, gently triturated to break up colonies into small aggregates, further dissociated into a single cell solution by trypsination (0.05% trypsin/0.04% EDTA) and transferred on MEF feeder cells at a density of 10000 cells/ml. Oct-4 positive colonies were counted six days after plating. […]
The pro-survival effects of activation of Notch and inhibition of JAK was tested on HSF-6 (NIH code UC06, http://escell.ucsf.edu), H1 (NIH code WA01, www.wicell.org) and H9 (NIH code WA09, www.wicell.org) hES cells. Singly dissociated hES cells were plated on mouse embryo fibroblasts (MEFs), treated daily for one week and colony numbers counted. […]

[6] = test system: mES (D3) cells; experiment: mES cell plating efficiency, Oct4 and STAT3 phosphorylation in the presence of LIF; assay type: cell-based, mouse
Source text: FIGS. 10a-10c are a set of images showing JAK inhibition reduces the phosphorylation of STAT3 on Ser727 in mES cell cultures. […] Very low levels of phosphorylated p38 were detectable under all conditions. […] Self-renewal of mES cells correlated with Ser727 phosphorylation.
mES (D3) cells were obtained from ATCC and were maintained in feeder-free cultures on gelatin-coated plates supplemented with 1400 units/ml LIF.
There is great interest in conditions that support the growth of mouse and human ES cells. In contrast to CNS SC (FIG. 2, FIG. 3) and hES SC (se below), the growth of undifferentiated mouse ES cells depends on the stimulation of the JAK/STAT pathway and STAT3 phosphorylation on Tyr705 has been specifically shown to be essential for self-renewal of mouse ES cells (Niwa et al., Genes Dev 12:2048-60, 1998; Matsuda et al., Embo J 18:4261-9, 1999). Ligands that stimulate the JAK/STAT pathway cause human ES cells to differentiate (Daheron et al., Stem Cells 22:770-8, 2004; Humphrey et al., Stem Cells 22:522-30, 2004). It was determined if the Notch/sSTAT survival pathway is present in mouse or human ES cells.

[7] = test system: p38, SMAD1/5/8, MSK-1, STAT3 phosphorylation in hES cells; experiment: Signalling immunoblots in hES cells
Experimental: Immunoblotting: Immunoblotting was performed as previously described (Panchision et al., Genes Dev 15:2094-110, 2001). The following antibodies were used in the experiments described below: pSer473-Akt (92715), pSer308-Akt (9275), pSer2448-mTOR (29715), pThr180/Tyr182-p38 (9211), pSMAD1/5/8 (9511) from Cell Signaling; STAT3 (482), pSer727-STAT3 (8001-R), pTyr705-STAT3 (7993) from Santa Cruz; Sonic Hedgehog (R&D, AF464), nucleostemin (McKay Lab), Hes3 (Chemicon, AB5706), α-tubulin (Sigma, T-6074).
To determine whether in the hES system JAK inhibition reduced p38 activity, cells were treated in the absence of MEF with JAK inhibitor for different times and assayed for p38 phosphorylation.

[8] = test system: nucleostemin, SHH; experiment: Nucleostemin and SHH protein expression in CNS stem cells; assay type: cell-based, mouse
Source text: The interest in stem cell self-renewal mechanisms prompted analysis of potential down-stream components of the Notch/STAT3-Ser727 (Notch/sSTAT) pathway. Nucleostemin is a p53-binding protein expressed in self-renewing CNS stem cells and cancer cells (Tsai et al., J Neurosci 20:3725-35, 2000; Tsai et al., J Cell Biol 168:179-84, 2005). Sonic Hedgehog (SHH) is a protein with functions in fate specification and stem cell survival in the fetal and adult CNS (Palma et al., Development 132:335-44, 2005).
There are two forms of mRNA encoded by the Hes3 gene, Hes3a and Hes3b.

Molecule: COc1ccc(S(=O)(=O)Nc2ccccc2CN(C)C/C=C/c2ccc(Cl)cc2)cc1 [KN92, reference compound]
- effect on STAT3-Ser727 phosphorylation following Notch activation [1]: no effect

Molecule: CN(C)S(=O)(=O)c1ccc2c(c1)/C(=C/c1cc3c([nH]1)CCCC3)C(=O)N2 [SU6656, reference compound]
- effect on STAT3-Ser727 phosphorylation following Notch activation [1]: blocked

Molecule: C[C@H](NC(=O)Cc1cc(F)cc(F)c1)C(=O)N[C@H](C(=O)OC(C)(C)C)c1ccccc1 [DAPT, reference compound]
- basal levels of pSer727 [1]: reduced the basal levels of pSer727
- effect on STAT3-Ser727 phosphorylation following Notch activation [1]: blocked
- accumulation of Notch1IC [2]: blocks the accumulation of Notch1IC
- effect on Jagged-induced Hes3 mRNA induction [3]: inhibited Hes3 induction by Jagged1

Molecule: C[S+]([O-])c1ccc(-c2nc(-c3ccc(F)cc3)c(-c3ccncc3)[nH]2)cc1 (stereo not drawn) [p38 inhibitor, 4-(4-Fluorophenyl)-2-(4-methylsulfinylphenyl)-5-(4-pyridyl)1H-imidazole]
- CNS stem cell survival / plating efficiency [4]: enhanced survival to a similar extent to the JAK inhibitor
- human ES cell survival [5]: stimulated human ES cell survival
- Oct4 expression ([6]; five day treatments in the presence of LIF): did not affect Oct4 expression
- cell survival in a plating efficiency assay ([6]; in the presence of LIF): did not significantly alter cell survival
- STAT3 phosphorylation on Ser727 [7]: stimulated STAT3 phosphorylation on Ser727
- phosphorylation of MSK-1 kinase [7]: reduced the phosphorylation of MSK-1 kinase
- phosphorylation of SMAD 1/5/8 [7]: reduced in a time-dependent manner

B1: CNTF: cilliary neurotrophic factor, CNTF (577-NT) from R&D (protein, UniProt P26441 1-200, looked up)
Ciliary neurotrophic factor: MAFTEHSPLTPHRRDLCSRSIWLARKIRSDLTALTESYVKHQGLNKNINLDSADGMPVASTDQWSELTEAERLQENLQAYRTFHVLLARLLEDQQVHFTPTEGDFHQAIHTLLLQVAAFAYQIEELMILLEYKIPRNEADGMPINVGDGGLFEKKLWGLKVLQELSQWTVRSIHDLRFISSHQTGIPARGSHYIANNKKM
- CNS stem cell survival / plating efficiency [4]: increased survival; also recorded: support CNS stem cell survival
- time of peak STAT3 phosphorylation [1]: around 30 min
- concentration at which phosphorylation of STAT3 on Tyr705 occurs ([1]; dose response, 30 minutes): > 1 ng/mL
- concentration inducing phosphorylation of STAT3 on Ser727 ([1]; dose response, 30 minutes): < 0.5 ng/mL
- nucleostemin and SHH protein expression [8]: Nucleostemin levels were also increased
- Hes3 mRNA levels ([3]; CNTF 20 ng/ml): did not induce Hes3 mRNA
- effect on Jagged-induced Hes3 mRNA induction [3]: inhibited Hes3 induction by Jagged1
- Hes3 expression at the protein expression level ([3]; immunohistochemical): inhibits

From patent US20080242594A1, “Methods for Promoting Stem Cell Proliferation and Survival” (priority 2005, published 2008)
